Laboratory results taken from ChEMBL document CHEMBL1130657, “Synthesis of novel fluorinated coumarins: excellent UV-light excitable fluorescent dyes” (Bioorg Med Chem Lett, 1998).

Assay: Photostability, pKa was evaluated
Format: physicochemical

SMILES | pKa
O=C(O)c1cc2cc(F)c(O)c(F)c2oc1=O | 3.7
Cc1cc(=O)oc2c(F)c(O)ccc12 | 6.4
O=C(O)c1cc2ccc(O)cc2oc1=O | 7.5
Cc1c(CC(=O)O)c(=O)oc2c(F)c(O)c(F)cc12 | 4.7
CCOC(=O)c1cc2cc(F)c(O)c(F)c2oc1=O | 3.8
